# Experimental data from patent US9326511B2, “Methods of inhibiting microbial biofilms” (priority 2008, dated 2016).
# Legend:
# [1] = test system: Enterococcus faecium; assay: MIC (IsoSensitest broth) and MBC (subculture onto Columbia blood agar), reference strains and clinical isolates; assay type: cell-based; conditions: dark, 24 hours
# Description: (§1) The Minimum Inhibitory Concentrations (MIC's) for Compound 10, over a range of reference strains and clinical isolates, were determined using IsoSensitest® broth and Minimum Bactericidal concentrations (MBC's) determined by subculture onto Columbia blood agar.
# (§2) • 1. A 5 mg/ml stock solution of Compound 10 was made up in water • 2. A series of dilutions were undertaken to produce a range of concentrations between 32-0.001 mg/L • 3. The test microorganisms were grown up overnight in IsoSensitest® broth • 4. The cultures were then diluted with fresh broth to a final concentration of 10^4 organisms/ml and placed on a shaker for 90 minutes at 37° C. • 5. 90 μl of the broth culture containing the microorganisms were transferred to each of 12 wells in a row in a microtitre tray and repeated in a control tray—four organisms per tray. • 6. 90 μL of the appropriate Compound 10 dilution was then added to each well containing organisms to give a final dilution series from 16 mg/L to 0.0005 mg/L • 7. The solutions were mixed well and incubated in the dark for 24 hours • 8. […] The MBC values were recorded after overnight incubation of the subcultures. • 10. Controls of uninoculated broth and broth plus inoculum were undertaken for each organism in each tray Results
# [2] = test system: Enterococcus faecalis; assay: as above; assay type: cell-based; conditions: dark, 24 hours
# Description: as §1, §2
# [3] = test system: normal human dermal fibroblasts (NHDF); assay: Toxicity against human skin cells, MTT-assay; assay type: cell-based; conditions: 5 min, 1 h, 4 h incubation, 0.01-10 μM, then 24 h in the dark
# Description: NHDF were incubated with different concentrations of Compound 10 for 5 min, 1 h and 4 h (0 μM, 0.01 μM, 0.1 μM, 1.0 μM, 10 μM). Cells were then incubated for 24 h in the dark. Toxicity was tested by standard MTT-assay. Cell viability was normalised to one, which means, the values of control cells were normalised to one. Grey dotted line: 5 min incubation; black dotted: 1 h incubation; black line: 4 h incubation; (n=3, mean±SD).
# (§3) Test compounds were screened for toxicity against cultured human skin cells using normal human epidermal keratinocytes (NHEK) and normal human dermal fibroblasts (NHDF), purchased from CellSystems Biotechnologie GmbH, Germany.
# (§4) The NHEK and NHDF cells were used between passages 3 and 10. The cells were seeded with 7.5 and/or 15×10^4 cells/well (microtitre plate) and were allowed to attach overnight in an incubator (37° C., 5% CO2). After incubation with different concentrations of the selected photosensitisers for various times, the cells were incubated for 24 hours in the dark.
# (§5) Toxicity was tested by standard MTT-assay (Mossman et al., 1983 J. Immunological Methods 65: 55-63). MTT is an indicator of metabolically active cells. Dependent on enzyme activity in mitochondria a colour reaction can be visualised, which can be measured by ELISA reader (540 nm). […]
# [4] = Acute dermal toxicity test (OECD 402); assay type: in vivo; conditions: 3.2 mM in a topical formulation
# Description: Compound 10 was tested at 3.2 mM in a topical formulation in a standard acute dermal toxicity test to determine if any clinical or histological toxicity for the compound could be detected.
# The acute toxicity protocol was based on OECD Guidelines for the testing of chemicals/Section 4—Health Effects Test Number 402: Acute Dermal Toxicity.
# [5] = test system: normal human epidermal keratinocytes (NHEK); assay: Toxicity against human skin cells, MTT-assay; assay type: cell-based; conditions: 5 min, 1 h, 4 h incubation, 0.01-10 μM, then 24 h in the dark
# Description: NHEK were incubated with different concentrations of Compound 10 for 5 min, 1 h and 4 h (0 μM, 0.01 μM, 0.1 μM, 1.0 μM, 10 μM). Cells were then incubated for 24 h in the dark. Toxicity was tested by standard MTT-assay. Cell viability was normalised to one, which means, the values of control cells were normalised to one. Red dotted line: 5 min incubation; black dotted: 1 h incubation; blue dotted: 4 h incubation only; (n=3, mean±SD).
# as §3, §4, §5
# [6] = test system: range of S. aureus strains including MSSA, healthcare-associated and community-associated MRSA; conditions: previously shown (Love et al. 2008); cited from earlier work
smiles,measurement,setting,value
"C[N+](C)(C)CCCOc1ccc(-c2c3nc(cc4ccc([nH]4)c(-c4ccc(OCCC[N+](C)(C)C)cc4)c4nc(cc5ccc2[nH]5)C=C4)C=C3)cc1.[Cl-].[Cl-] [Compound 10, 5,15-bis-[4-(3-Trimethylammonio-propyloxy)-phenyl]-porphyrin dichloride]",Cpd 10 MIC,[1]; strain E5 (clinical isolate),0.5 µg/mL
same,Cpd 10 MIC,[1]; strain E19 (clinical isolate),0.5 µg/mL
same,Cpd 10 MIC,[1]; strain E44 (clinical isolate),0.5 µg/mL
same,Cpd 10 MIC,[2]; strain E4 (clinical isolate),0.5 µg/mL
same,Cpd 10 MIC,[2]; strain E10 (clinical isolate),0.5 µg/mL
same,Cpd 10 MIC,[2]; strain E37 (clinical isolate),0.5 µg/mL
same,"Innate toxicity (cell viability, MTT)",[3],does not demonstrate an innate toxicity
same,Acute dermal toxicity (clinical and histological),[4],does not result in any acute toxic effect
same,"Innate toxicity (cell viability, MTT)",[5],does not demonstrate an innate toxicity
same,MBC50,[6],1 µg/mL
same,MIC50,[6],1 µg/mL
